Source: patent US11821895B2, “Functional cortical organoids, methods of making, and uses thereof” (priority 2017, dated 2023)

System: cortical organoids
Test: Pharmacological perturbation of network activity in cortical organoids, multi-electrode array (MEA) recordings
Assay type: cell-based, human

Row | Structure (SMILES) | number of bursts / burst activity | synchronous activity / synchrony indexes | neuronal electrical activity | network bursts (synchrony) | number of network events
1 | N#Cc1cc2[nH]c(=O)c(=O)[nH]c2cc1[N+](=O)[O-] [CNQX] | significantly reducing the number of bursts | extinction of synchronous activity | – | – | –
2 | NC1=N[C@H](O)[C@H]2[C@H]3O[C@]4(O)O[C@@H]([C@@H](O)[C@@]2(N1)[C@@H]4O)[C@]3(O)CO [TTX, tetrodotoxin] | – | – | blocked | – | –
3 | NC(CCCP(=O)(O)O)C(=O)O (stereo not drawn) [AP5] | significantly reducing the number of bursts | extinction of synchronous activity | – | – | –
4 | NCc1cc(=O)[nH]o1 [muscimol] | significantly reducing the number of bursts | extinction of synchronous activity | – | reversibly extinguish the network bursts (synchrony) | –
5 | NCC(CC(=O)O)c1ccc(Cl)cc1 (stereo not drawn) [baclofen] | significantly reducing the number of bursts | extinction of synchronous activity | – | reversibly extinguish the network bursts (synchrony) | completely abolishes synchronized network events
